Results from US20250134874A1, “PHARMACEUTICAL FORMULATIONS COMPRISING 3-({[(4R)-7-{METHYL[4-(PROPAN-2-YL)PHENYL]AMINO}-3,4-DIHYDRO-2H-1-BENZOPYRAN-4-YL]METHYL}AMINO)PYRIDINE-4-CARBOXYLIC ACID” (TACHYON THERAPEUTICS, INC., priority 2021, published 2025).

System: 301 cancer cell lines from different tumor types (OncoPanel; HD Biosciences)
Assay: 2D cell viability inhibition assay (CellTiter-Glo) in cancer cell line panel
Assay type: cell-based
Design: key to AUC: AUC as fraction of the no-inhibition area (dose range × 0–100 % of control)
Settings: for Emax: in %
Procedure: In a larger screening study, compound 1 was evaluated across a broad cancer cell line panel (OncoPanel; HD Biosciences) composed of 301 cancer cell lines from different tumor types.
2D cell viability inhibition assays were performed in multiwell plates seeded with cells from the panel. After seeding, the plates were cultured overnight in a humidified incubator at 37° C. to promote adherence. Assays were initiated in individual wells by adding either DMSO as a vehicle control, growth media as a blank, or serially diluted compound 1 (10 μM to 0.0005 μM with 1:3 serial dilution). Cultures were incubated for 168 hours after which the number of viable cells in each test well was assessed using the CellTiter-Glo® Luminescent Cell Viability Assay. Luminescence readouts were performed using an EnVision® Multilabel Reader and the compound 1 readouts were normalized to the DMSO control readouts, expressed as a percent of the control. Outliers were flagged out by visual inspection. Percent of control was plotted against the corresponding compound 1 concentration and the absolute IC50 value was determined using four-parameter logistic non-linear regression as the concentration where inhibition was 50% of the control. For maximum inhibition <50%, the absolute IC50 was reported as >10. In addition to EC50 and IC50, AUC was determined and was normalized to the area corresponding to theoretical no-inhibition (the rectangular area defined by the compound dose range and 0 to 100 in y). Emax was recorded as the minimum in y with the compound dose range. For those cell lines where Emax>40, EC50 was manually set to 10 μM. A hierarchical clustering algorithm based on Euclidean distance between the standardized input values and “Ward.D” method as implemented in R hclust function was used to visualize the compound 1 cellular potency data. The sensitive/moderate/resistant calls for each cell line was determined by visually inspecting the resulting clustering dendrogram. All the analyses were done in R Core Team.

CC(C)c1ccc(N(C)c2ccc3c(c2)OCC[C@H]3CNc2cnccc2C(=O)O)cc1 [Compound 1, 3-({[(4R)-7-{methyl[4-(propan-2-yl)phenyl]amino}-3,4-dihydro-2H-1-benzopyran-4-yl]methyl}amino)pyridine-4-carboxylic acid]
AUC (NCIH23 cell line): 0.6227 | AUC (NCIH69 cell line): 0.2802 | Emax (NCIH69 cell line): 1.271 | AUC (NCIH82 cell line): 0.2502 | AUC (NCIH209 cell line): 0.1869 | Emax (NCIH209 cell line): 8.61 | AUC (NCIH358 cell line): 0.4332 | Emax (NCIH358 cell line): 22.66 | AUC (NCIH441, lung, adenocarcinoma, 168 hours): 0.7804 | AUC (NCIH446 cell line): 0.5837 | AUC (NCIH460 cell line): 0.3714 | Emax (NCIH460 cell line): 7.705 | AUC (NCIH508 cell line): 0.3378 | Emax (NCIH508 cell line): 3.207 | AUC (NCIH520 cell line): 0.3237 | AUC (NCIH522 cell line): 0.4447 | Emax (NCIH522 cell line): 15.14 | AUC (NCIH524 cell line): 0.3617 | Emax (NCIH524 cell line): 12.7766 | AUC (NCIH596, lung, mixed adenosquamous carcinoma, 168 hours): 0.8151 | AUC (NCIH647 cell line): 0.4942 | Emax (NCIH647 cell line): 28.29 | AUC (NCIH661 cell line): 0.3608 | Emax (NCIH661 cell line): 9.075 | AUC (NCIH716 cell line): 0.3799 | Emax (NCIH716 cell line): 12.75 | AUC (NCIH929 cell line): 0.5285 | AUC (NCIH1048 cell line): 0.1479 | AUC (NCIH1092 cell line): 0.479 | Emax (NCIH1092 cell line): 26.4 | AUC (NCIH1155 cell line): 0.07571 | AUC (NCIH1299 cell line): 0.3508 | Emax (NCIH1299 cell line): 12.65 | AUC (NCIH1355 cell line): 0.5594 | AUC (NCIH1395, lung, adenocarcinoma, 168 hours): 0.8542 | AUC (NCIH1435, lung, non-small cell carcinoma, 168 hours): 0.7612 | AUC (NCIH1436 cell line): 0.4953 | Emax (NCIH1436 cell line): 34.4 | AUC (NCIH1437 cell line): 0.4082 | Emax (NCIH1437 cell line): 14.97 | AUC (NCIH1563, lung, adenocarcinoma, 168 hours): 0.9652 | AUC (NCIH1573, lung, adenocarcinoma, 168 hours): 0.7482 | AUC (NCIH1618 cell line): 0.02266 | EC50 (NCIH1618 cell line): 0.508 nM | IC50 (NCIH1618 cell line): < 0.5 nM | AUC (NCIH1623 cell line): 0.522 | AUC (NCIH1650, lung, bronchioloalveolar adenocarcinoma, 168 hours): 0.8746 | AUC (NCIH1666 cell line): 0.2983 | AUC (NCIH1694 cell line): 0.3214 | Emax (NCIH1694 cell line): 21.59 | AUC (NCIH1703 cell line): 0.4204 | Emax (NCIH1703 cell line): 21.7324 | AUC (NCIH1734 cell line): 0.6734 | AUC (NCIH1755, lung, adenocarcinoma, 168 hours): 1.29 | AUC (NCIH1793 cell line): 0.4916 | Emax (NCIH1793 cell line): 27.48 | AUC (NCIH1836 cell line): 0.3332 | AUC (NCIH1838, lung, non-small cell carcinoma, 168 hours): 0.7858 | AUC (NCIH1930 cell line): 0.5402 | AUC (NCIH1944 cell line): 0.5809 | Emax (NCIH1944 cell line): 37.59 | AUC (NCIH1975 cell line): 0.529 | AUC (NCIH2009, lung, adenocarcinoma, 168 hours): 0.7914 | AUC (NCIH2023 cell line): 0.2884 | AUC (NCIH2081 cell line): 0.3049 | AUC (NCIH2087 cell line): 0.3822 | AUC (NCIH2122 cell line): 0.5019 | AUC (NCIH2171 cell line): 0.7416 | AUC (NCIH2172 cell line): 0.6812 | AUC (NCIH2228 cell line): 0.6864 | AUC (NCIH2286 cell line): 0.2917 | AUC (NCIH2291 cell line): 0.3822 | Emax (NCIH2291 cell line): 13.48 | AUC (NCIH2347 cell line): 0.5778 | Emax (NCIH2347 cell line): 40.29 | AUC (NCIN87 cell line): 0.3132 | AUC (NIHOVCAR3, ovary, NS, 168 hours): 0.7771 | AUC (NMCG1, central nervous system, NS, 168 hours): 0.7013 | AUC (NOMO1 cell line): 0.3293 | AUC (NUGC3 cell line): 0.3824 | Emax (NUGC3 cell line): 16 | AUC (NUGC4 cell line): 0.4642 | Emax (NUGC4 cell line): 24.53 | EC50 (OCUM1, OCUM1 cell line): ≥ 10000 nM | IC50 (OCUM1, OCUM1 cell line): 7.79 nM | AUC (OCUM1 cell line): 0.5324 | Emax (OCUM1 cell line): 32.42 | AUC (ONS76, central nervous system, NS, 168 hours): 0.7336 | AUC (OSRC2 cell line): 0.6658 | AUC (OVISE cell line): 0.5405 | IC50 (OVISE cell line): 24 nM | AUC (P31FUJ cell line): 0.286 | AUC (PANC1 cell line): 0.5543 | AUC (PANC0213 cell line): 0.5829 | EC50 (PANC0213 cell line): 21.5 nM | IC50 (PANC0213 cell line): 35.8 nM | AUC (PC3 cell line): 0.502 | Emax (PC3 cell line): 26.1466 | AUC (PECAPJ34CLONEC12 cell line): 0.311 | EC50 (PECAPJ34CLONEC12 cell line): 3.81 nM | IC50 (PECAPJ34CLONEC12 cell line): 3.97 nM | AUC (PF382 cell line): 0.2761 | AUC (PLCPRF5 cell line): 0.5107 | AUC (RCM1 cell line): 0.6711 | AUC (RD cell line): 0.4703 | Emax (RD cell line): 27.42 | AUC (REH cell line): 0.0957 | AUC (RERFLCMS cell line): 0.6415 | EC50 (RERFLCMS cell line): 23.5 nM | IC50 (RERFLCMS cell line): 65.9 nM | AUC (RKO cell line): 0.3827 | Emax (RKO cell line): 11.05 | AUC (RL cell line): 0.2366
